Legend:
[1] = target: T1, human ETB receptor (Homo sapiens, UniProt P24530); assay: Endothelin binding inhibition, Binding Test #2: competition with 125I-ET-1 for ETB receptors on transfected COS7 cell membranes; conditions: for inhibition at 100 µM: read-out: ETB % inhibition @ 100 μM, @ 100 μM, incubation at 24° C.
T1 construct: expressed in transfected cells; host or cells: COS7 cells
T1 sequence (P24530 27-442): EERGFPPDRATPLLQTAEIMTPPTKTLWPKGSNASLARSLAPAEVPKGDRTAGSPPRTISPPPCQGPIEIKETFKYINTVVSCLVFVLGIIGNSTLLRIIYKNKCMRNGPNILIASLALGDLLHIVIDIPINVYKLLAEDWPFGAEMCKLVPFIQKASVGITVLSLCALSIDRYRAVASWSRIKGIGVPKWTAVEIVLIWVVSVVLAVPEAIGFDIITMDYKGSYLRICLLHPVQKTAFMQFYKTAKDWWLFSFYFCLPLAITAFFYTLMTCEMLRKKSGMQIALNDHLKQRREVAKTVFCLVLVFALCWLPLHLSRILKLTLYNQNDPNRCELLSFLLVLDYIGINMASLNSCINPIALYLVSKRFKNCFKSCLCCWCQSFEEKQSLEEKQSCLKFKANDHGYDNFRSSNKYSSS
Text: Compounds that are potential endothelin antagonists are identified by testing their ability to compete with ^125I-labeled ET-1 for binding to human ETA receptors or ETB receptors present on isolated cell membranes. The effectiveness of the test compound as an antagonist or agonist of the biological tissue response of endothelin can also be assessed by measuring the effect on endothelin induced contraction of isolated rat thoracic aortic rings. The ability of the compounds to act as antagonists or agonists for ETB receptors can be assess by testing the ability of the compounds are to inhibit endothelin-1 induced prostacyclin release from cultured bovine aortic endothelial cells.
COS7 cells were transfected with DNA encoding the ETB receptor, The resulting cells, which express the human ETB receptor, were grown to confluence in T-150 flasks. Membrane was prepared as described above. The binding assay was performed as described above using the membrane preparation diluted with binding buffer to a concentration of 1 μg/50 μL.
(§1) Briefly, the COS7 cells, described above, that had been transfected with DNA encoding the ETB receptor and express the human ETB receptor on their surfaces were grown to confluence in T-175 flasks. Cells from multiple flasks were collected by scraping, pooled and centrifuged for 10 min at 190×g. The cells were resuspended in phosphate buffered saline (PBS) containing 10 mM EDTA using a Tenbroeck homogenizer. The suspension was centrifuged at 4° C. 57,800×g for 15 min, the pellet was resuspended in 5 mL of buffer A (5 mM HEPES buffer, pH 7.4 containing aprotinin (100 KIU/mL)) and then frozen and thawed once. Five mL of Buffer B (5 mM HEPES Buffer, pH 7.4 containing 10 mM MnCl2 and 0.001% deoxyribonuclease Type 1) was added, the suspension mixed by inversion and then incubated at 37° C. for 30 minutes. The mixture was centrifuged at 57,800×g as described above, the pellet washed twice with buffer A and then resuspended in buffer C (30 mM HEPES buffer, pH 7.4 containing aprotinin (100 KIU/mL) to give a final protein concentration of 2 mg/mL.
The binding assay was performed as described above using the membrane preparation diluted to give 1 μg/50 μL of binding buffer.

[2] = target: T2, human ETA receptors (Homo sapiens, UniProt P25101); assay: Endothelin binding inhibition, Binding Test #1: competition with 125I-ET-1 for ETA receptors on TE 671 cell membranes
T2 construct: endogenous in cells; host or cells: TE 671 cells (ATCC HTB 139), membrane preparation
T2 sequence (P25101 21-427): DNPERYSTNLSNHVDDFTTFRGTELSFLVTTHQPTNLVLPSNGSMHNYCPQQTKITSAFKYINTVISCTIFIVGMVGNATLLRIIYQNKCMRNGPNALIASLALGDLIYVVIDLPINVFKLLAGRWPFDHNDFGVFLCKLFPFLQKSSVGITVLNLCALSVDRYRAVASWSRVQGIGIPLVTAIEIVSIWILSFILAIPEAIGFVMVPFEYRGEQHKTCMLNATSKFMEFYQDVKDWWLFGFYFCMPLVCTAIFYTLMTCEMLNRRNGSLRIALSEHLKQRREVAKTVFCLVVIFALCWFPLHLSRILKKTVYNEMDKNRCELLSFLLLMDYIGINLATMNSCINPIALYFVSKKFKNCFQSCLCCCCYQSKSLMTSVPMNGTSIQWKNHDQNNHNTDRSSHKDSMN
Procedure: as §1, with “Cells from” for “Briefly, the COS7 cells, described above, that had been transfected with DNA encoding the ETB receptor and express the human ETB receptor on their surfaces were grown to confluence in T-175 flasks. Cells from”, “4° C. at 57,800×g for” for “4° C. 57,800×g for”, “thawed once. 5 mL of” for “thawed once. Five mL of”, “of 2 mg/mL and stored at −70° C. until use.” for “of 2 mg/mL.”
The membrane suspension (50 μL), containing up to 8 μg of membrane protein, was added to each of (A), (B), or (C). […] Alternatively, the incubation was conducted at 24° C.
The supernatant, containing unbound radioactivity, was decanted and the pellet counted on a Genesys multiwell gamma counter. The degree of inhibition of binding (D) was calculated according to the following equation: [formula]
Each test was generally performed in triplicate.

[3] = incubation at 24° C. (values marked †)
[4] = incubation at 4° C. (values without †)

IC50 [1, 3] [nM]	IC50 [2, 3] [nM]	IC50 [2, 4] [nM]	inhibition at 100 µM [1] [%]	IC50 [1, 4] [nM]	Molecule
> 100000	20000	–	–	–	Cc1noc(NS(=O)(=O)c2ccsc2C(=O)N2CCN(Cc3ccc4c(c3)OCO4)CC2)c1Cl [N-(4-chloro-3-methyl-5-isoxazolyl)-2-{[4-(3,4-methylenedioxybenzyl)piperazin-1-yl]carbonyl}thiophene-3-sulfonamide]
21200	832	–	–	–	Cc1cccc(-c2ccsc2S(=O)(=O)Nc2onc(C)c2Br)c1 [N-(4-bromo-3-methyl-5-isoxazolyl)-3-(3-tolyl)thiophene-2-sulfonamide]
2090	128	–	–	–	Cc1noc(NS(=O)(=O)c2ccsc2CC2(c3ccc4c(c3)OCO4)OCCO2)c1Cl [N-(4-chloro-3-methyl-5-isoxazolyl)-2-[β,β-(ethylenedioxy)-3,4-(methylenedioxy)phenethyl]thiophene-3-sulfonamide]
3310	155	–	–	–	Cc1noc(NS(=O)(=O)c2sccc2-c2ccc(CCC(C)C)cc2)c1Br [N-(4-bromo-3-methyl-5-isoxazolyl)-3-(4-iso-pentylphenyl)thiophene-2-sulfonamide]
3240	79.5	–	–	–	Cc1noc(NS(=O)(=O)c2sccc2CC=Cc2cc3c(cc2CO)OCO3)c1Br [N-(4-bromo-3-methyl-5-isoxazolyl)-3-[2-(hydroxymethyl)-4,5-(methylenedioxy)cinnamyl]thiophene-2-sulfonamide]
25000	3.8	–	–	–	Cc1noc(NS(=O)(=O)c2ccsc2C(=O)Nc2c(CC#N)cc3c(c2CC#N)OCO3)c1Cl [N-(4-chloro-3-methyl-5-isoxazolyl)-2-[2-cyanomethyl-4,5-(methylenedioxy)-6-cyanomethyl]phenylaminocarbonylthiophene-3-sulfonamide]
22000	150	–	–	–	CCc1oc2ccccc2c1S(=O)(=O)Nc1onc(C)c1Cl [N-(4-chloro-3-methyl-5-isoxazolyl)-2-ethylbenzo[b]furan-3-sulfonamide]
24500	479	–	–	–	Cc1cc(C)c(OC(=O)c2sccc2S(=O)(=O)Nc2onc(C)c2Br)c(C)c1 [N-(4-bromo-3-methyl-5-isoxazolyl)-2-[(2,4,6-trimethylphenoxy)carbonyl]thiophene-3-sulfonamide]
–	274	–	21	–	Cc1ccc(OC(=O)c2sccc2S(=O)(=O)Nc2onc(C)c2C)c(C)c1 [N-(3,4-dimethyl-5-isoxazolyl)-2-[(2,4-dimethylphenoxy)carbonyl]thiophene-3-sulfonamide]
8480	–	87.3	–	–	CCCc1ccc(-c2ccsc2S(=O)(=O)Nc2onc(C)c2Br)cc1 [N-(4-bromo-3-methyl-5-isoxazolyl)-3-(4-propylphenyl)thiophene-2-sulfonamide]
22800	1640	–	–	–	Cc1ccc(OCc2ccsc2S(=O)(=O)Nc2onc(C)c2Br)cc1 [N-(4-bromo-3-methyl-5-isoxazolyl)-3-[(4-methylphenoxy)methyl]thiophene-2-sulfonamide]
2940 ± 1320	21 ± 17	–	–	–	COc1ccc(Cc2sc3ccccc3c2S(=O)(=O)Nc2onc(C)c2Br)cc1OC [N-(4-bromo-3-methyl-5-isoxazolyl)-2-(3,4-dimethoxybenzyl)benzo[b]thiophene-3-sulfonamide]
7700	270	–	–	–	Cc1noc(NS(=O)(=O)c2ccsc2Cc2ccc3c(c2)OCO3)c1Br [N-(4-bromo-3-methyl-5-isoxazolyl)-2-[(3,4-methylenedioxy)benzyl]thiophene-3-sulfonamide]
~1500	~200	–	–	–	CCCc1cc2c(cc1OCc1ccsc1S(=O)(=O)Nc1onc(C)c1Br)OCO2 [N-(4-bromo-3-methyl-5-isoxazolyl)-3-{[2-propyl-4,5-(methylenedioxy)phenoxy]methyl}thiophene-2-sulfonamide]
1620	55	–	–	–	Cc1cc(C)c(CCc2ccsc2S(=O)(=O)Nc2onc(C)c2Br)c(C)c1 [N-(4-bromo-3-methyl-5-isoxazolyl)-3-(2,4,6-trimethylphenethyl)thiophene-2-sulfonamide]
–	–	337	–	9370	Cc1noc(NS(=O)(=O)c2ccsc2C(O)c2ccccc2)c1Br (stereo not drawn) [N-(4-bromo-3-methyl-5-isoxazolyl)-2-(α-hydroxybenzyl)thiophene-3-sulfonamide]
–	–	188	–	16000	Cc1noc(NS(=O)(=O)c2ccsc2C(=O)N(C)c2ccccc2)c1Br [N-(4-bromo-3-methyl-5-isoxazolyl)-2-[(methyl)phenylaminocarbonyl]thiophene-3-sulfonamide]
34300	3.28	–	–	–	Cc1cc2c(cc1CC(=O)c1sccc1S(=O)(=O)Nc1onc(C)c1C)OCO2 [N-(3,4-dimethyl-5-isoxazolyl)-2-[2-methyl-4,5-(methylenedioxy)phenylacetyl]thiophene-3-sulfonamide]
3900	970	–	–	–	Cc1noc(NS(=O)(=O)c2ccsc2C(=O)NS(=O)(=O)c2cccc3c(N(C)C)cccc23)c1Br [N-(4-bromo-3-methyl-5-isoxazolyl)-2-[(5-dimethylamino-1-naphthyl)sulfonylaminocarbonyl]thiophene-3-sulfonamide]
3600	0.8	–	–	–	Cc1ccc(CC(=O)c2sccc2S(=O)(=O)Nc2onc(C)c2Br)c(C)c1 [N-(4-bromo-3-methyl-5-isoxazolyl)-2-(2,4-dimethylphenylacetyl)thiophene-3-sulfonamide]
–	3610	–	30	–	Cc1noc(NS(=O)(=O)c2ccsc2C(=O)Oc2ccc3c(c2)OCO3)c1C [N-(3,4-dimethyl-5-isoxazolyl)-2-{(3,4-(methylenedioxy)phenoxy]carbonyl}thiophene-3-sulfonamide]
17400	2.7	–	–	–	Cc1ccc(CC(=O)c2sccc2S(=O)(=O)Nc2onc(C)c2C)c(C)c1 [N-(3,4-dimethyl-5-isoxazolyl)-2-(2,4-dimethylphenylacetyl)thiophene-3-sulfonamide]
27000	2100	–	–	–	Cc1noc(NS(=O)(=O)c2ccsc2C(=O)C(C#N)c2ccc3c(c2)OCO3)c1Cl (stereo not drawn) [N-(4-chloro-3-methyl-5-isoxazolyl)-2-{1-cyano-1-[(3,4-methylenedioxy)phenyl]acetyl}thiophene-3-sulfonamide]

Molecule	IC50 [1, 3] [nM]	IC50 [2, 3] [nM]	IC50 [2, 4] [nM]	inhibition at 100 µM [1] [%]	IC50 [1, 4] [nM]
N-(4-chloro-3-methyl-5-isoxazolyl)-2-[β-acetoxy-2-methyl-4,5-(methylenedioxy)styryl]thiophene-3-sulfonamide	3740	–	5.44	–	–
